Experimental data taken from patent US11439615B2, “Lipoxin and lipoxin analogue mediated neuroprotection and treatments” (University Health Network, priority 2017, dated 2022).
pEC50: −log10 of the molar value.

Legend:
HT22 cells = assay: Glutamate challenge of HT22 neuronal cells, viability; format: cell-based; settings: for efficacy of neuroprotection / pEC50: HT22 cells exposed to glutamate stress, nonlinear regression; for pEC50: Mus musculus, HT-22, n=3/point, read-out: EC50 of neuroprotection; for viability of glutamate challenged HT22 cells: increasing concentrations up to 500 nM, 5 mM glutamate
Procedure: An in vitro assay to recapitulate key aspects of the acute KA model was established. In this case, unconcentrated ACM was applied to the glutamate sensitive neuronal cell line HT22 (66, 67). Glutamate challenge of 5 mM was titrated to induce 60-80% cell death (ie: 20-40% survival). […] The media was concentrated for proteomic analyses.
LXA4 and LXB4 promote direct neuroprotective signaling. To the inventor's knowledge, a role for lipoxins as direct neuroprotective or neurotrophic factors has not been reported. Although their established anti-inflammatory actions extend to the CNS (29-32). However, it was hypothesized they may have indirect protective effects. In order to test whether the protective activity was direct or indirect, LXA4 or LXB4 was applied to neuronal cells in an established in vitro assay.
There is no established receptor for LXB4. However, LXB4 shares structural homology with LXA4 and the DHA-derived resolving D2 (RvD2), which mediate their actions via FPR2 or GPR18 (74), respectively. Therefore, it was assessed whether specific receptor antagonists for FPR2 or GPR18 could block LXB4 mediated protection.
As shown in FIG. 14 lipoxin neuroprotection is dose responsive. Dose responses were generated for LXA4 (open circles) and LXB4 (closed circles) in HT22 cells exposed to glutamate stress, followed by nonlinear regression analyses.

primary RGCs = assay: Primary RGCs under paraquat oxidative stress, cell and neurite survival; format: cell-based, rat; settings: 1 μM, 24 hours of 30 μM PQ
Procedure: FIG. 5D is a graph showing Mitotracker red signal which indicates protection from […] membrane potential with LXB4 treatment (n=3). FIG. 5E is a series of images showing primary RGCs labeled with β3-tubulin extend an extensive network of neurites that disintegrate dramatically after 24 hours of 30 μM PQ. […] (Scale bar indicates 20 μm, *p<0.05, **p<0.01, bars are S.E.M.).
For astrocytes: Primary mature retinal astrocytes (RA) were isolated and cultured as previously described (46). Briefly, eyes were dissected out of adult Wistar rats and placed in ice-cold MEM-H17 media. Isolated retinas were digested by shaking in MEM-H17 containing papain and DNAse, followed by trituration to disperse cell-aggregates. When cultures reached confluence, the cells were placed on a rotating shaker for 6-8 hours to remove microglia and then re-plated. A glial-specific expression profile was confirmed by probing the cultures with a panel of glia microglia and neuronal markers (44). For RGCs: RGCs were purified using magnetic MicroBeads (Miltenyi Biotec, Germany) according to the manufacturer's protocol. Briefly; retinal cell suspensions were prepared from 8-10 day old rats and incubated with CD90.1 microbeads, and then carefully washed with DPBS/BSA buffer. The suspension was centrifuged at 130×g and the supernatant aspirated. Cells were then incubated with biotinylated depletion antibodies against microglia and endothelial cells. The labeled cell suspension was then incubated with magnetic Anti-Biotin MACSiBead™ Particles, and placed in a weak magnetic field. The pre-enriched cell suspension was centrifuged, and resuspended in fresh DPBS/BSA buffer and applied to a MACs MS separation column in the presence of a strong magnetic field to select for CD90.1-bound RGCs. To increase RGC purity, the eluted fraction was enriched over a second column. Purified RGCs were eluted and plated on poly-D-lysine coated dishes. The cells were cultured in Neurobasal-A media (Gibco) supplemented with 2% calf serum, B27, L-glutamine, BDNF, CNTF, forskolin and pen/strep.

[1] = system: retinal ganglion cell (RGC); assay: Mouse chronic glaucoma model (circumlimbal suture ocular hypertension); format: in vivo; settings: 0.1 μg/μL locally and systemically every other day from week 5, n=10; for loss of RGC (RBPMS flatmount counts): end of 12 weeks; for reduction of RGC function (pSTR) / reduction of retinal nerve fiber layer (RNFL) thickness: week 12
Procedure: LXA4 and LXB4 treatment were assessed and found to be efficacious in a mouse chronic glaucoma model. Chronic ocular hypertension was induced in weaned male C57BL/6 mice using a monocular circumlimbal suture. From week 5, they were treated with either PBS vehicle, LXA4 or LXB4 (0.1 μg/μL, locally and systemically, every other day) (shaded areas). Retinal function (electroretinogram) and structure (optical coherence tomography) were measured weekly in all groups for 12 weeks. At the end of 12 weeks, animals were euthanized and retinal ganglion cell (RGC) counts were analyzed on retinal flatmounts by RBPMS immunostaining. […] (n=10 per group, bars represent S.E.M.).

Structure (SMILES)	efficacy of neuroprotection (HT22 cells)	pEC50 (HT22 cells)	viability of glutamate challenged HT22 cells (HT22 cells)	RGC survival following oxidative stress (primary RGCs)	loss of RGC (RBPMS flatmount counts) [1] [%]	reduction of RGC function (pSTR) [1] [%]	reduction of retinal nerve fiber layer (RNFL) thickness [1] [%]	RGC neurite degeneration following PQ challenge (primary RGCs)
CCCCC[C@H](O)/C=C/C=C\C=C\C=C\[C@@H](O)[C@@H](O)CCCC(=O)O [LXA4, 5S,6R,15S-trihydroxy-7E,9E,11Z,13E-eicosatetraenoic acid]	0.89	6.20	significantly increased viability	significant rescue	−14.1±1.0	−24.0±1.3	−23.8±1.6	–
CCCCC[C@H](O)[C@H](O)/C=C/C=C/C=C\C=C\[C@@H](O)CCCC(=O)O [LXB4, 5S,14R,15S-trihydroxy-6E,8Z,10E,12E-eicosatetraenoic acid]	0.81	7.41	significantly increased viability	significant rescue	−12.2±0.9	−20.9±1.0	−20.9±1.0	significantly rescued
